In brackets after ≈: the same amount, converted by molar mass.
Tests used:
[1] = Measurement of the solubility of AZDN in the organic binder; conditions: 20 °C, organic solvent or mixture, thermodynamic from solid
Method: (§1) The bottle is shaken for a period of between 1 h and 10 h, for example 6 h. After decantation, said binder is analysed to determine its content of compound of formula (I): this content corresponds to the solubility of the azo compound in the organic binder in g/L. The analysis is carried out by gas chromatography.
(§2) The bottle is shaken for approximately 6 h. After decantation, the organic binder is analysed to determine its AZDN concentration. The analysis is carried out by gas chromatography with an injector temperature set at 220° C. (under these conditions, AZDN is essentially transformed into tetramethylsuccinonitrile in the injector).

physchem [2] = conditions: 20 °C, organic solvent or mixture, thermodynamic from solid
Method: as §1, §2

[3] = Granule dissolution test in acetone; assay type: physicochemical; conditions: 13 g AZDN in 100 ml acetone, room temperature, 100 rpm, visual
Method: A granule dissolution test is carried out at room temperature. A glass Erlenmeyer flask fitted with a magnetic stirring bar is placed on a magnetic stirrer. With the stirring stopped, 13 g of AZDN are introduced into the Erlenmeyer flask. 100 ml of acetone are then introduced quickly and stirring is started (100 rpm). The time taken until, visually, undissolved AZDN crystals are no longer seen is recorded.
Commercial recrystallized AZDN (130-257-438 microns/dv 10-50-90), AZDN granules prepared and dried as obtained above, and the dry powdered AZDN used in Example 1 are compared.

physchem [4] = test: physchem
Description: The aqueous phase is decanted and then analysed by gas chromatography in order to determine the binder content in g/L, corresponding to its solubility.
The aqueous phase is decanted and then analysed by gas chromatography to determine the concentration of organic binder.

[5] = water, 20 °C, thermodynamic from solid
[6] = 20 °C, water, thermodynamic from solid

Compound: CC(C)(C#N)N=NC(C)(C)C#N [AZDN, 2,2′-azobis(isobutyronitrile)]
- solubility at 6 h ([1]; isobutyl acetate): 59 mg/mL (≈ 359 mM)
- solubility at 6 h ([1]; meta-xylene): 25 mg/mL (≈ 152 mM)
- solubility at 6 h ([1]; methoxycyclopentane (CPME)): 30.5 mg/mL (≈ 186 mM)
- solubility at 6 h ([1]; methyl isobutyl ketone): 75.5 mg/mL (≈ 460 mM)
- solubility at 6 h ([1]; methyl pentyl ketone): 45 mg/mL (≈ 274 mM)
- solubility at 6 h ([1]; toluene): 60 mg/mL (≈ 365 mM)
- solubility at 6 h (physchem [2]; diethyl carbonate): 85 mg/mL (≈ 518 mM)
- solubility at 6 h (physchem [2]; n-butyl acetate): 59 mg/mL (≈ 359 mM)

Compound: CC(C)(C#N)N=NC(C)(C)C#N [Dry AZDN powder, 2,2′-azobis(isobutyronitrile)]
- Dissolution time [3]: 15 s

Compound: CC(=O)OCC(C)C [Isobutyl acetate]
- solubility at 1 h (physchem [4]; [5]): 7 mg/mL

Compound: COC1CCCC1 [Methoxycyclopentane]
- solubility at 1 h (physchem [4]; [5]): 12.5 mg/mL (≈ 125 mM)

Compound: CC(=O)CC(C)C [Methyl isobutyl ketone]
- solubility at 1 h (physchem [4]; [5]): 20 mg/mL (≈ 200 mM)

Compound: CCCCCC(C)=O [Methyl pentyl ketone]
- solubility at 1 h (physchem [4]; [5]): 5 mg/mL (≈ 43.8 mM)

Compound: CC(C)(C#N)N=NC(C)(C)C#N [Recrystallized AZDN, 2,2′-azobis(isobutyronitrile), reference compound]
- Dissolution time [3]: 35 s

Compound: Cc1cccc(C)c1 [meta-Xylene]
- solubility at 1 h (physchem [4]; [6]): < 0.5 mg/mL

Compound: CCCCOC(C)=O [n-Butyl acetate]
- solubility at 1 h (physchem [4]; [6]): 7 mg/mL
